Like-named read-outs stand apart in the source and are kept apart here.
How the values were obtained:
Type in all cases: biochemical
[1] = molecular target: T1, opioid receptor kappa (Homo sapiens, UniProt P41145); experiment: GTPγ[35S] binding assay, antagonism of dynorphin-A
T1 construct: expressed in transfected cells
Procedure: (§1) Membranes were prepared from cells as described (Bass et al, 1996). GTPγ[5S] binding assays were performed in a 96 well FlashPlate™ format in duplicate using […] GTPγ[^35S] and 5 μg membrane per well in assay buffer composed of 50 mM Tris HCl, pH 7.4, 5 mM MgCl2, 1 mM EDTA, 100 mM NaCl, 30 μM GDP, 0.1% bovine serum albumin and the following protease inhibitors: 100 μg/ml bacitracin, 100 μg/ml benzamidine, 5 μg/ml aprotinin, 5 μg/ml leupeptin. The assay mix was then incubated at 30° C. with increasing concentrations of antagonist (10^−10 M to 10^−5 M) for 10 minutes and challenged with the agonists BW-373U86 (1 nM), dynorphin-A (10 nM), […] (1 μM) for opioid receptors delta, kappa, and mu, respectively. The assays were performed at 30° C. for one hour. The FlashPlates were then centrifuged at 2000×g for 10 minutes. Stimulation of GTPγ[^35S] binding was then quantified using a Wallac Microbeta and Ki calculations were done using Prism™ by Graphpad.

[2] = molecular target: T2, opioid receptor mu (Homo sapiens, UniProt P35372); experiment: GTPγ[35S] binding assay, antagonism of endorphin
T2 construct: expressed in transfected cells
T2 sequence (P35372 whole entry): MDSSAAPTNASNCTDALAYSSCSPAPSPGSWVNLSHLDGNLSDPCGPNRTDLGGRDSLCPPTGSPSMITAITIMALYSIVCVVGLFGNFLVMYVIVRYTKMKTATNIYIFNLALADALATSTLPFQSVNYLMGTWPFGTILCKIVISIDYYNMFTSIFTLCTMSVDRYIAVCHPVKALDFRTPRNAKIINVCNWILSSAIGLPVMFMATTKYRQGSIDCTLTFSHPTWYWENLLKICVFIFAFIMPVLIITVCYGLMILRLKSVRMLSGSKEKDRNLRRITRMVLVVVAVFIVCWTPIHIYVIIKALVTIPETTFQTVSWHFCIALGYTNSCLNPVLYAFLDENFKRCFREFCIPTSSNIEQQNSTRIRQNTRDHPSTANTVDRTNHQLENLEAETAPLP
Procedure: as §1

[3] = molecular target: T3, opioid receptor delta (Homo sapiens, UniProt P41143); experiment: GTPγ[35S] binding assay, antagonism of BW-373U86; details: read-out: Delta functional (GTPγ[35S] binding Ki)
T3 construct: expressed in transfected cells
T3 sequence (P41143 whole entry): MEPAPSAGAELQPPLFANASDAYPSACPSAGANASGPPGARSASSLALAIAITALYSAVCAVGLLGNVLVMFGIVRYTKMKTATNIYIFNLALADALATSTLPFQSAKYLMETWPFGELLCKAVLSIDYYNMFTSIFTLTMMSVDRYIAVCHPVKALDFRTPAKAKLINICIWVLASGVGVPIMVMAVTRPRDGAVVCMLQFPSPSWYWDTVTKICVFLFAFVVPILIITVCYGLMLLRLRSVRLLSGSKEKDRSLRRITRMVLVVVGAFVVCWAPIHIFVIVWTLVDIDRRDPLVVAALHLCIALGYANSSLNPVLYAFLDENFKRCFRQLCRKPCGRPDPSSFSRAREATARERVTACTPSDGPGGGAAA
Procedure: as §1

[4] = average Ki, antagonism of dynorphin-A (10 nM) stimulated GTPγ[35S] binding, kappa opioid receptor membranes, read-out: Kappa functional (GTPγ[35S] binding Ki)
[5] = average Ki, antagonism of endorphin (1 μM) stimulated GTPγ[35S] binding, mu opioid receptor membranes, read-out: Mu functional (GTPγ[35S] binding Ki)
[6] = average Ki, antagonism of BW-373U86 (1 nM) stimulated GTPγ[35S] binding, delta opioid receptor membranes
[7] = read-out: Kappa functional (GTPγ[35S] binding Ki)
[8] = read-out: Mu functional (GTPγ[35S] binding Ki)
[9] = read-out: Kappa functional Ki (GTPγ[35S] binding)
[10] = read-out: Mu functional Ki (GTPγ[35S] binding)
[11] = average Ki, antagonism of dynorphin-A (10 nM) at kappa opioid receptor membranes, read-out: Kappa functional Ki (GTPγ[35S] binding)
[12] = average Ki, antagonism of endorphin (1 μM) at mu opioid receptor membranes, read-out: Mu functional Ki (GTPγ[35S] binding)
[13] = average Ki, antagonism of dynorphin-A (10 nM) at kappa opioid receptor, read-out: Kappa functional Ki (GTPγ[35S] binding)
[14] = average Ki, antagonism of endorphin (1 μM) at mu opioid receptor, read-out: Mu functional Ki (GTPγ[35S] binding)

T1 sequence (P41145 whole entry): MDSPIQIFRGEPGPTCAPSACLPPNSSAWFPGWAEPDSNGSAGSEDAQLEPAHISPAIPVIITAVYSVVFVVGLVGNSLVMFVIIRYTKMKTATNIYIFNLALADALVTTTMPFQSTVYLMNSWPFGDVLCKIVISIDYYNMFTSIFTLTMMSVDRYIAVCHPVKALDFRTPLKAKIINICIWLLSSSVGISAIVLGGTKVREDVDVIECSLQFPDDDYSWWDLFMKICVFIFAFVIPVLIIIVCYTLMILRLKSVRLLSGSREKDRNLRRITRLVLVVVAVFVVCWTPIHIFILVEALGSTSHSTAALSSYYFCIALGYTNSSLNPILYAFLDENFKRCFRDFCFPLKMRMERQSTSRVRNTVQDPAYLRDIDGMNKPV

Cc1cc(CNCCC(C)C)ccc1-c1cccc(C(N)=O)c1 [1A-01]
Ki [1, 4]: 11.5 nM
Ki [2, 5]: 1.49 nM

Cc1cc(CNCCC(C)C)cc(C)c1-c1cccc(C(N)=O)c1 [1A-02]
Ki [3, 6]: 2.59 nM
Ki [1, 4]: 6.72 nM
Ki [2, 5]: 1.25 nM

CC(C)CCNCc1cc(Cl)c(-c2cccc(C(N)=O)c2)c(Cl)c1 [1A-03]
Ki [3, 6]: 4.87 nM
Ki [1, 4]: 3.76 nM
Ki [2, 5]: 1.2 nM

CC(C)CCNCc1ccc(-c2cccc(C(N)=O)c2)c(C#N)c1 [1A-04]
Ki [3, 6]: 13.8 nM
Ki [1, 4]: 28.8 nM
Ki [2, 5]: 4.64 nM

COc1cc(-c2cccc(C(N)=O)c2)ccc1CNCCC(C)C [1A-05]
Ki [3, 6]: 10.7 nM
Ki [1, 4]: 16.6 nM
Ki [2, 5]: 14 nM

CC(C)CCNCc1ccc(-c2cccc(C(N)=O)c2)cc1O [1A-06]
Ki [3, 6]: 0.0351 nM
Ki [1, 4]: 101 nM
Ki [2, 5]: 52.3 nM

CC(C)CCNCc1cc(F)c(-c2cccc(C(N)=O)c2)cc1F [1A-08]
Ki [3, 6]: 3160 nM
Ki [1, 4]: 87.3 nM
Ki [2, 5]: 70.9 nM

CC(C)CCNCc1cc(F)c(-c2cc(C(N)=O)ccc2F)cc1F [1A-09]
Ki [3, 6]: 16.7 nM
Ki [1, 4]: 51.1 nM
Ki [2, 5]: 64.8 nM

NC(=O)c1cccc(-c2cc(F)c(CNC3Cc4ccccc4C3)c(F)c2)c1 [1A-10]
Ki [3]: 5.5 nM
Ki [1, 7]: 14.4 nM
Ki [2, 8]: 0.966 nM

NC(=O)c1ccc(F)c(-c2cc(F)c(CNC3Cc4ccccc4C3)c(F)c2)c1 [1A-11]
Ki [3]: 6.62 nM
Ki [1, 7]: 12.4 nM
Ki [2, 8]: 0.843 nM

CC(C)CCNCc1ccc(-c2cc(C(N)=O)ccc2F)cc1F [1A-12]
Ki [3, 6]: 17.2 nM
Ki [1, 4]: 34.9 nM
Ki [2, 5]: 41.1 nM

CC(C)CCNCc1ccc(-c2cccc(C(N)=O)c2)cc1Cl [1A-13]
Ki [3, 6]: 33.6 nM
Ki [1, 4]: 23.4 nM
Ki [2, 5]: 25 nM

Cc1cc(CNCCC(C)C)ccc1-c1ccc(C(N)=O)cc1 [1B-01]
Ki [3, 6]: 13.6 nM
Ki [1, 4]: 24.8 nM
Ki [2, 5]: 17.8 nM

Cc1cc(C(N)=O)ccc1-c1c(F)cc(CNC2Cc3ccccc3C2)cc1F [1B-04]
Ki [3]: 5.28 nM
Ki [1, 7]: 20.1 nM
Ki [2, 8]: 2.66 nM

CC(C)CCNCc1c(F)cc(-c2ccc(C(N)=O)cc2)cc1F [1B-05]
Ki [3, 6]: 3000 nM
Ki [1, 4]: 162 nM
Ki [2, 5]: 107 nM

Cc1cc(C(N)=O)ccc1-c1cc(F)c(CNC2Cc3ccccc3C2)c(F)c1 [1B-07]
Ki [3]: 0.0993 nM
Ki [1, 7]: 0.241 nM
Ki [2, 8]: 0.0494 nM

Cc1cc(C(N)=O)ccc1-c1ccc(CNCCC(C)C)c(F)c1 [1B-08]
Ki [3, 6]: 1.97 nM
Ki [1, 4]: 1.89 nM
Ki [2, 5]: 3.24 nM

COCCNCc1c(F)cc(-c2ccc(C(N)=O)cc2C)cc1F [1B-09]
Ki [3, 6]: 11 nM
Ki [1, 4]: 17.9 nM
Ki [2, 5]: 70.5 nM

Cc1cc(C(N)=O)ccc1-c1ccc(CNC2Cc3ccccc3C2)c(F)c1 [1B-10]
Ki [3]: 0.0326 nM
Ki [1, 7]: 0.256 nM
Ki [2, 8]: 0.0717 nM

CC(C)CCNCc1ccc(-c2cccc(C(N)=O)c2)cn1 [1C-01]
Ki [3, 6]: 22 nM
Ki [1, 4]: 114 nM
Ki [2, 5]: 154 nM

Cc1cc(C(N)=O)ccc1-c1ccc(CNCCC(C)C)nc1 [1D-01]
Ki [3, 6]: 11.7 nM
Ki [1, 4]: 17.1 nM
Ki [2, 5]: 20.5 nM

Cc1cc(C(N)=O)ccc1-c1ccc(CNCCC(C)C)cn1 [1D-02]
Ki [3, 6]: 4.33 nM
Ki [1, 4]: 14.7 nM
Ki [2, 5]: 43.1 nM

Cc1cc(C(N)=O)ccc1-c1ccc(CNC2Cc3ccccc3C2)cn1 [1D-03]
Ki [3]: 1.24 nM
Ki [1, 7]: 2.93 nM
Ki [2, 8]: 0.541 nM

Cc1cc(C(N)=O)ccc1-c1ccc(CNC2Cc3ccccc3C2)nc1 [1D-04]
Ki [3]: 0.868 nM
Ki [1, 7]: 1.88 nM
Ki [2, 8]: 0.715 nM

NC(=O)c1ccc(-c2ccc(CNC3Cc4ccccc4C3)nc2)c(Cl)c1 [1D-05]
Ki [3]: 4.85 nM
Ki [1, 7]: 4.96 nM
Ki [2, 8]: 1.85 nM

NC(=O)c1ccc(-c2ccc(CNC3Cc4ccccc4C3)cn2)c(Cl)c1 [1D-06]
Ki [3]: 3.45 nM
Ki [1, 7]: 4.13 nM
Ki [2, 8]: 1.1 nM

Cc1cc(CNCCC(C)C)ccc1-c1ncc(C(N)=O)cc1C [1D-07]
Ki [3, 6]: 9.3 nM
Ki [1, 4]: 8.99 nM
Ki [2, 5]: 1.43 nM

CC(C)CCNCc1ccc(-c2cccc(C(N)=O)c2)cc1 [4A-01]
Ki [3, 6]: 15.7 nM
Ki [1, 4]: 26.9 nM
Ki [2, 5]: 32.8 nM

CC(C)CCNCc1ccc(-c2ccc(F)c(C(N)=O)c2)cc1 [4A-02]
Ki [3, 6]: 1.55 nM
Ki [1, 4]: 724 nM
Ki [2, 5]: 44800 nM

NC(=O)c1cc(-c2ccc(CNC3Cc4ccccc4C3)cc2)ccc1F [4A-03]
Ki [3]: 51.9 nM
Ki [1, 7]: 60.2 nM
Ki [2, 8]: 25.2 nM

CC(C)CCNCc1ccc(-c2cc(F)cc(C(N)=O)c2)cc1 [4A-04]
Ki [3, 6]: 21.4 nM
Ki [1, 4]: 60.1 nM
Ki [2, 5]: 92.1 nM

CC(C)CCNCc1ccc(-c2cccc(C(N)=O)c2)c(Cl)c1 [4A-05]
Ki [1, 4]: 9.84 nM
Ki [2, 5]: 0.95 nM

NC(=O)c1cccc(-c2ccc(CNCC3CCCOC3)cc2Cl)c1 (stereo not drawn) [4A-06]
Ki [3]: 23.6 nM
Ki [1, 7]: 14.7 nM
Ki [2, 8]: 12.5 nM

NC(=O)c1cccc(-c2ccc(CNC[C@@H]3CCCO3)cc2Cl)c1 [4A-07]
Ki [3]: 24.3 nM
Ki [1, 7]: 14.7 nM
Ki [2, 8]: 9.03 nM

NC(=O)c1cccc(-c2ccc(CNCCC3CCOCC3)cc2Cl)c1 [4A-08]
Ki [3]: 2.79 nM
Ki [1, 7]: 12.9 nM
Ki [2, 8]: 3.44 nM

CC1(C)OCC(CNCc2ccc(-c3cccc(C(N)=O)c3)c(Cl)c2)O1 (stereo not drawn) [4A-10]
Ki [3, 6]: 353 nM
Ki [1, 4]: 31.3 nM
Ki [2, 5]: 8.49 nM

NC(=O)c1cccc(-c2ccc(CNC3CCc4ccccc43)cc2Cl)c1 (stereo not drawn) [4A-11]
Ki [3]: 21.3 nM
Ki [1, 7]: 7.69 nM
Ki [2, 8]: 6.27 nM

NC(=O)c1cccc(-c2ccc(CNCC3CCCCO3)cc2Cl)c1 (stereo not drawn) [4A-12]
Ki [3]: 22.7 nM
Ki [1, 7]: 18.2 nM
Ki [2, 8]: 15 nM

NC(=O)c1cccc(-c2ccc(CNCCC3CCCCO3)cc2Cl)c1 (stereo not drawn) [4A-13]
Ki [3]: 3.27 nM
Ki [1, 7]: 11 nM
Ki [2, 8]: 1.16 nM

COc1cc(C(N)=O)ccc1-c1ccc(CNCCC(C)C)cc1 [4B-46]
Ki [1, 9]: 14.7 nM
Ki [2, 10]: 121 nM

CC(C)CCNCc1ccc(-c2cccc(-c3ncn[nH]3)c2)c(Cl)c1 [7A-04]
Ki [1, 11]: 0.794 nM
Ki [2, 12]: 0.162 nM

Cc1cc(CNCCC(C)C)ccc1-c1cccc(-c2ncn[nH]2)c1 [7A-05]
Ki [1, 11]: 2.12 nM
Ki [2, 12]: 0.505 nM

CC(C)CCNCc1cc(F)c(-c2cccc(-c3ncn[nH]3)c2)c(F)c1 [7A-06]
Ki [1, 11]: 4.61 nM
Ki [2, 12]: 2.06 nM

CC(C)CCNCc1ccc(-c2cccc(NS(C)(=O)=O)c2)cc1 [8A-01]
Ki [1, 13]: 45.9 nM
Ki [2, 14]: 14.6 nM

Cc1cc(NS(C)(=O)=O)ccc1-c1ccc(CNCCC(C)C)cc1 [8B-01]
Ki [1, 13]: 1450 nM
Ki [2, 14]: 715 nM

CC(C)CC[NH2+]Cc1ccc(-c2cccc(C(N)=O)c2)c(F)c1 [E5-01, (3′-Carbamoyl-2-fluoro-biphenyl-4-ylmethyl)-(3-methyl-butyl)-ammonium chloride]
Ki [1, 9]: 23 nM
Ki [2, 10]: 14 nM
